# Assay results from article PMC9240354, “Pharmacokinetics, Pharmacodynamics and Antiviral Efficacy of the MEK Inhibitor Zapnometinib in Animal Models and in Humans” (Frontiers in Pharmacology, 2022).
# Read-outs that look alike come from different tables or passages of the source.
# Legend:
# [1] = tested on: MEK; test: MEK inhibition in PBMCs of healthy human volunteers (pERK/ERK, Wes); type: in vivo
# Protocol: PBMCs were isolated from the same blood samples (30 µl mouse blood, 50 µl hamster blood, or 1 ml dog blood) used for pharmacokinetic analysis. After plasma separation as described in the section above (Blood sampling and preparation of plasma samples), the remaining red blood cells were lysed by adding 1 volume of red blood cell (RBC) lysis buffer (Thermo Fisher Scientific, Waltham, MA, United States) (300 µl for mice, 500 µl for hamster, and 10 ml for dogs). The samples were incubated for 15 min at RT and centrifuged at 500 x g for 5 min (RT). The supernatant was removed completely, and the pellet was washed twice with PBS. The PBMC cell pellets were store at −80°C until further analysis. PBMCs of 8 ml human blood were isolated using CPT^TM tubes. After a 20-min centrifugation at 1,650 x g at room temperature, the plasma was collected for PK analysis as described in the section above (Blood sampling and preparation of plasma samples). The PBMC layer was collected in a 15 ml tube (Greiner Bio-One, Frickenhausen, Germany), and washed twice with PBS by centrifugation at 300 x g for 10 min at RT. The PBMC pellets were store at −80°C until further PD assessment.
# (§1) The pharmacodynamic assessment was performed using the Wes™ (Simple Western™) system which uses capillary electrophoresis to separate, identify and quantify proteins of interest. A chemiluminescence signal for each identified protein is detected and the area under the peak is calculated, which is then used for quantification. The 0.1x Sample Buffer, 400 mM dithiothreitol (DTT) solution, 5x Fluorescence Master Mix, and the Biotinylated Ladder (ProteinSimple®, Abingdon, Oxford, United Kingdom) were prepared according to manufacturer’s instructions. For all species, PBMCs were lysed in 1x radioimmunoprecipitation assay (RIPA) buffer (containing 0.24% (w/v) tris base (Sigma-Aldrich, St. Louis, MO, United States), 0.88% (w/v) NaCl (Carl Roth GmbH, Karlsruhe, Germany), 0.2% (v/v) 500 mM EDTA (Sigma-Aldrich), 1% (v/v) Triton X-100 (Sigma-Aldrich), 0.5% (w/v) sodium deoxycholate (Sigma-Aldrich), 0.1% (w/v) sodium dodecyl sulfate (SDS) (Carl Roth), 10% (v/v) glycerol (Carl Roth), 0.05% phenylmethyl sulfonyl fluoride (PMSF) (Carl Roth), 0.01% Benzonase® Nuclease (Sigma-Aldrich), protease inhibitor cocktail (Roche, Basel, Switzerland), and phosphatase inhibitor cocktail (Roche) in H2O), further diluted with 0.1x Sample Buffer (ProteinSimple®, Abingdon, Oxford, United Kingdom) to adjust the protein concentration to 1 μg/μl. Then the 5x Fluorescence Master Mix in DTT (ProteinSimple®) was added, and the samples were denatured for 5 min at 95°C, loaded onto the assay plate and analyzed using specific antibodies. […] The anti-rabbit secondary antibody (Cat# DM-001) was also purchased from ProteinSimple® and was ready to use. Data were analyzed with Compass software for simple western (ProteinSimple®). Using the ratio of pERK to ERK of each sample compared to control (pre-dose), the level of ERK phosphorylation was calculated and then converted into the percentage level of MEK inhibition.
# [2] = tested on: MEK; test: MEK inhibition in PBMCs, summary regardless of species; type: in vivo, mice, hamsters, dogs, human
# Protocol: as §1
# [3] = healthy volunteers, n = 8
# [4] = set-up: method as in Koch-Heier et al., manuscript in preparation; conditions: mice, 75 mg/kg; previously unpublished preclinical data; ref Koch-Heier et al., manuscript in preparation; cited from earlier work
# [5] = single oral dose 100 mg, vs pre-dose
# [6] = single oral dose 300 mg, vs pre-dose
# [7] = single oral dose 600 mg, vs pre-dose
# [8] = single oral dose 900 mg, vs pre-dose
smiles,measurement,setting,value
"O=C(O)c1ccc(F)c(F)c1Nc1ccc(I)cc1Cl [zapnometinib, 2-(2-Chloro-4-Iodophenylamino)-N-3,4-Difluoro benzoic acid]",MEK inhibition at Cmax,"[1]; doses 100, 300 and 600 mg taken together",approximately 60%
same,MEK inhibition at 24 h,[1]; [5],35 ± 25%
same,MEK inhibition at Cmax,[1]; [5],63 ± 8%
same,MEK inhibition at 24 h,[1]; [6],41 ± 26%
same,MEK inhibition at Cmax,[1]; [6],61 ± 18%
same,MEK inhibition at 24 h,[1]; [7],37 ± 20%
same,MEK inhibition at Cmax,[1]; [7],64 ± 22%
same,MEK inhibition at 24 h,[1]; [8],26 ± 26%
same,MEK inhibition at Cmax,[1]; [8],79 ± 20%
same,concentration to inhibit 50% of PBMC MEK activity,[2]; across all species,approximately 10 μg/ml
same,"MEK inhibition in PBMCs, maximum observed",[2]; regardless of species,up to 80%
same,MEK inhibition maintained 24 h after dosing,"[2]; regardless of species, almost all zapnometinib eliminated from plasma",up to 50%
same,C24 h,[3]; single oral dose 100 mg,1000 ± 400 ng/mL
same,C24 h,[3]; single oral dose 300 mg,4000 ± 800 ng/mL
same,C24 h,[3]; single oral dose 600 mg,8000 ± 2000 ng/mL
same,C24 h,[3]; single oral dose 900 mg,16000 ± 6000 ng/mL
same,tolerability,[4],well tolerated
